Experimental data: publication PMC13286573, “Exploration of precision coregulator TR-FRET identifies diverse signatures for LXR ligands relevant to discovery of nonlipogenic ABCA1 inducers” (eLife, 2026)
Read-outs that look alike come from different tables or passages of the source.

Assays:
[1] = system: SREBF1, FAS, and SCD1; test: RT-PCR of lipogenic genes SREBF1, FAS, SCD1 in HepG2 cells; type: cell-based, human; details: HepG2, same conditions as SRE-luc
Protocol: Three of the biphenyl sulfones, XL041, XL652, and SR9238, gave anomalous activation data at concentrations above 1 µM, associated with interference with the nanoluciferase reporter (Figure 5—figure supplement 1). Owing to the anomalous response in the reporter assay, we measured lipogenic genes, SREBF1, FAS, and SCD1 by RT-PCR in HepG2 cells in response to treatment with the biphenyl sulfones (Figure 5G–I).
HepG2 cells were seeded in 12-well plates and treated with compounds for 24 hr. Following treatment, cells were washed once with PBS and then lysed in 350 μL of RLT buffer (Qiagen). Lysates were immediately frozen at −80 °C until RNA extraction. Total RNA was extracted using RNeasy Plus Mini columns (Qiagen) according to the manufacturer’s instructions. RNA concentration and purity were assessed using the A260/A280 ratio measured on a Synergy Neo2 plate reader (BioTek). […] Quantitative PCR was performed using TaqMan Gene Expression Master Mix (Invitrogen) with 2 μL of cDNA and gene-specific TaqMan probes in a 20 μL reaction volume per well. The following TaqMan assays were used: ABCA1: Hs01059101_m1, SREBF1: Hs01088691_m1, SCD: Hs01682761_m1, FASN: Hs01005622_m1, and HPRT1 (endogenous control): Hs02800695_m1. qPCR was performed on a StepOne Real-Time PCR System (Applied Biosystems), and gene expression was quantified using the ΔΔCt method.

[2] = system: LXR; test: Categorization of ligands by CRT/pCRT signature; type: biochemical; details: response at 1 µM ligand compared with theoretical signatures
From the text: With the knowledge that, in pCRT, corepressors bind to the apo-receptor; whereas coactivator binding requires a ligand-induced conformational change, we can categorize all ligands using their CRT profiles. Ligands induce three LXR conformational ensembles with CoR (destabilizing D, stabilizing S, neutral N) and only two conformations with CoA (stabilizing S, neutral N) (Figure 9 (Table 1)). In categorizing ligands based upon these CRT characteristics, labels are needed.
The category for each ligand is not always identical for LXRα vs. LXRβ. Similarly, the phenotype associated with each classification is isoform dependent. Recruitment of CoA to LXRβ by FA, WA, and PA will activate transcription; whereas, lack of recruitment by SA, HA, and RA will antagonize transcription (Figure 9 (Table 1)). Stabilization of CoA and/or destabilization of CoR bound to LXRα is a derepression mechanism leading to activation/transcription for FA, WA, and RA; whereas partial activation is expected for PA.
To determine which LXR ligands fit with these theoretical CRT signatures, concentration-response curves were interpolated to measure normalized response at 1 µM ligand concentration and plotted as a heat map (Figure 9A).

[3] = biological target: T1, LXRα (Homo sapiens, UniProt Q13133); test: SRC-1 coactivator recruitment to LXRα, coregulator TR-FRET (CRT); type: biochemical; design: The CRT selectivity assay incorporates GST-tagged LXR-LBD; purchased Thermo Fisher Scientific PV4657; details: in the presence of 24HC (3 µM)
T1 sequence (Q13133 209-447 limits assumed): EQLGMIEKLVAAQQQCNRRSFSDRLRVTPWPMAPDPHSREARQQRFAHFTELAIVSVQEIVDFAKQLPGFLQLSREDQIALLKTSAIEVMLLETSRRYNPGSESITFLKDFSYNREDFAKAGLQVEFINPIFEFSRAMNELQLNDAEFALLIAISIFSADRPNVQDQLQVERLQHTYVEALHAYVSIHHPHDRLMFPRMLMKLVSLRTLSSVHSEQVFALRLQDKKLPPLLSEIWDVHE

[4] = biological target: T2, LXRβ (Homo sapiens, UniProt P55055); test: SRC-1 coactivator recruitment to LXRβ, coregulator TR-FRET (CRT); type: biochemical; design: The CRT selectivity assay incorporates GST-tagged LXR-LBD; purchased Thermo Fisher Scientific PV4660
T2 sequence (P55055 222-460 limits assumed): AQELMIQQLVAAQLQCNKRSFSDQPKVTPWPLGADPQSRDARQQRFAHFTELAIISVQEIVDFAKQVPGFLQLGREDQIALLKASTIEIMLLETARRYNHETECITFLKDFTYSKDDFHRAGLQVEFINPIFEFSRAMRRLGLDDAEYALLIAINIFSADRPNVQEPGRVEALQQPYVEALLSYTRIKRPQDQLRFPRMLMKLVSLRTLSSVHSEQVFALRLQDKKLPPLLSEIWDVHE

[5] = biological target: T2, LXRβ; test: SMRT2 corepressor binding to LXRβ, CRT; type: biochemical; design: The CRT selectivity assay incorporates GST-tagged LXR-LBD; purchased Thermo Fisher Scientific PV4660; details: for activity at 1 µM: read-out: SMRT2β, relative % activity at 1 μM

Antagonism of 24HC agonism at LXRβ (SRC-1 CRT) [4]	Effect on SMRT2 binding to LXRβ [5]	SMILES	Lipogenic gene transcription (SREBF1, FAS, SCD1) by RT-PCR [1]	CRT/pCRT signature category [2]	Antagonism of 24HC agonism at LXRα (SRC-1 CRT) [3]	activity at 1 µM [5] [%]	Antagonism of 24HC agonism at LXRβ (SRC-1 CRT) ([4]; in the presence of 24HC (3 µM))
antagonized the agonism of 24HC at LXRβ	selectively displace SMRT2 from LXRβ	Cc1cc(C)c(S(=O)(=O)N(Cc2ccc(-c3cccc(S(C)(=O)=O)c3)cc2)Cc2ccc(C(F)(F)F)o2)c(C)c1 [GSK2033]	reducing lipogenic gene transcription below baseline	HA (hard antagonist (HA))	without effect on LXRα	93.4	–
–	–	CCOC(=O)c1ccc(CN(Cc2ccc(-c3cccc(S(C)(=O)=O)c3)cc2)S(=O)(=O)c2c(C)cc(C)cc2C)o1 [SR9238]	reducing lipogenic gene transcription below baseline	RA (reverse agonist (RA))	without effect on LXRα	69.2	antagonized the agonism of 24HC at LXRβ
